The experiment deals with SRS-A. Description: inhibition of SRS-A induced contraction of guinea pig ileum. The class given is cell-based. As to conditions: Cavia porcellus, 0.25 h; for inhibition at 5 µM: read-out: […], compound concentration 5 × 10^-6 M, SRS-A agonist 40 μg/ml, read-out: PERCENTAGE ANTAGONISM; for inhibition at 1 µM: read-out: […], compound concentration 1 × 10^-6 M, SRS-A agonist 40 μg/ml, read-out: PERCENTAGE ANTAGONISM
How it is done:
The SRS-A antagonist activity of the compounds of this invention is measured by the ability of the active medicament to inhibit SRS-A induced contraction of guinea pig ileum. In this test system, sections of ileum are resected from guinea pigs and placed in 5 ml. tissue baths containing a modified Tyrode's solution. One end of the tissue is fixed to a glass tissue holder, the other is connected to a force-displacement transducer and the tissue is placed under a tension of 500 mg. Isometric tissue contractions are recorded on a six channel polygraph. Baths are constantly aerated with 95% O2 -5% CO2. After a 20 minute stabilization period a concentration of the appropriate agonist which provides a contraction height of 60-80% of the maximum obtainable to that agonist (as determined from full sequential concentration--response curves in separate experiments) is added to the tissue bath and the response recorded. The procedure is repeated until reproducible responses are obtained. For most agonists, two applications in rapid succession, followed 15 minutes later by a third, is sufficient to establish reproducibility. Experimental tissues are incubated with the selected concentration of the test compounds for 15 minutes. Experimental and control tissues are subjected to 5 bath changes during the incubation interval. Changes in bath fluid during the incubation period are helpful in insuring the reproducibility of tissue responses to the agonist. The same concentration of the agonist is reapplied in the presence of the test compound and the response registered and compared with controls. Percent inhibition produced by the test compound is calculated by substracting the mean percentage change in control tissue from the means percentage change in tissues exposed to the test compound. Additional compounds are then evaluated as long as the tissue remains reproducibly responsive to the agonist. Six tissues obtained from 6 animals are used simultaneously--3 controls and 3 experimental.
The compounds of this invention tested at concentrations of from 5×10^-5 M to 1×10^-6 M produce marked antagonism of partially purified slow reacting substance of anaphylaxis obtained from guinea pig lung. The agonist is employed at a concentration of 40 μg/ml. Representative of this effect, tabulated below are a number of the claimed compounds and percentage antagonism of SRS-A at various compound concentrations.

As for `O=S(=O)(Nc1cccc(Cl)c1)c1ccc2c(c1)CN(S(=O)(=O)NS(=O)(=O)N1CCc3ccc(S(=O)(=O)Nc4cccc(Cl)c4)cc3C1)CC2` [Compound 1, N,N'-bis[7-(3-chlorobenzeneaminosulfonyl)-1,2,3,4-tetrahydroisoquinolyl]disulfonylimide], the inhibition at 5 µM amounted to 67.5%.

As to `O=S(=O)(Nc1ccccc1)c1ccc2c(c1)CN(S(=O)(=O)NS(=O)(=O)N1CCc3ccc(S(=O)(=O)Nc4ccccc4)cc3C1)CC2` [Compound 2], the inhibition at 5 µM was 42.3%.

With `O=S(=O)(Nc1ccccc1Cl)c1ccc2c(c1)CN(S(=O)(=O)NS(=O)(=O)N1CCc3ccc(S(=O)(=O)Nc4ccccc4Cl)cc3C1)CC2` [Compound 3], the inhibition at 5 µM amounted to 24.8%.

With `O=S(=O)(Nc1ccc(Cl)cc1)c1ccc2c(c1)CN(S(=O)(=O)NS(=O)(=O)N1CCc3ccc(S(=O)(=O)Nc4ccc(Cl)cc4)cc3C1)CC2` [Compound 4], the inhibition at 5 µM worked out at 51.2%.

On to `O=S(=O)(Nc1cccc(Br)c1)c1ccc2c(c1)CN(S(=O)(=O)NS(=O)(=O)N1CCc3ccc(S(=O)(=O)Nc4cccc(Br)c4)cc3C1)CC2` [Compound 5], for which the inhibition at 1 µM was 54% and the inhibition at 5 µM turned out to be 68%.

`O=S(=O)(Nc1ccc(Br)cc1)c1ccc2c(c1)CN(S(=O)(=O)NS(=O)(=O)N1CCc3ccc(S(=O)(=O)Nc4ccc(Br)cc4)cc3C1)CC2` [Compound 6]: the inhibition at 5 µM worked out at 42.2%.

For `O=S(=O)(Nc1cccc(C(F)(F)F)c1)c1ccc2c(c1)CN(S(=O)(=O)NS(=O)(=O)N1CCc3ccc(S(=O)(=O)Nc4cccc(C(F)(F)F)c4)cc3C1)CC2` [Compound 7], the inhibition at 5 µM came out at 65%.

Consider `O=S(=O)(Nc1ccc(C(F)(F)F)cc1)c1ccc2c(c1)CN(S(=O)(=O)NS(=O)(=O)N1CCc3ccc(S(=O)(=O)Nc4ccc(C(F)(F)F)cc4)cc3C1)CC2` [Compound 8], for which the inhibition at 1 µM is 49% and the inhibition at 5 µM came to 57%.

In the case of `O=[N+]([O-])c1cccc(NS(=O)(=O)c2ccc3c(c2)CN(S(=O)(=O)NS(=O)(=O)N2CCc4ccc(S(=O)(=O)Nc5cccc([N+](=O)[O-])c5)cc4C2)CC3)c1` [Compound 9], the inhibition at 5 µM is 36%.

Turning to `O=S(=O)(Nc1ccc(Cl)c(Cl)c1)c1ccc2c(c1)CN(S(=O)(=O)NS(=O)(=O)N1CCc3ccc(S(=O)(=O)Nc4ccc(Cl)c(Cl)c4)cc3C1)CC2` [Compound 11], the inhibition at 1 µM was found to be 49% and the inhibition at 5 µM is 56%.

For `O=S(=O)(Nc1ccc(Cl)c(C(F)(F)F)c1)c1ccc2c(c1)CN(S(=O)(=O)NS(=O)(=O)N1CCc3ccc(S(=O)(=O)Nc4ccc(Cl)c(C(F)(F)F)c4)cc3C1)CC2` [Compound 12], the inhibition at 1 µM stood at 41% and the inhibition at 5 µM was 91.5%.

On to `Cc1ccc(NS(=O)(=O)c2ccc3c(c2)CN(S(=O)(=O)NS(=O)(=O)N2CCc4ccc(S(=O)(=O)Nc5ccc(C)c(C)c5)cc4C2)CC3)cc1C` [Compound 13], for which the inhibition at 5 µM amounted to 62%.

For the molecule `Cc1ccc(NS(=O)(=O)c2ccc3c(c2)CN(S(=O)(=O)NS(=O)(=O)N2CCc4ccc(S(=O)(=O)Nc5ccc(C)c(Cl)c5)cc4C2)CC3)cc1Cl` [Compound 14], the inhibition at 5 µM was 84%.

Take `CN(c1ccc(Cl)cc1)S(=O)(=O)c1ccc2c(c1)CN(S(=O)(=O)NS(=O)(=O)N1CCc3ccc(S(=O)(=O)N(C)c4ccc(Cl)cc4)cc3C1)CC2` [Compound 15]: the inhibition at 5 µM turned out to be 57.3%.

With `O=S(=O)(Nc1cccc(Cl)c1)c1c(Cl)ccc2c1CN(S(=O)(=O)NS(=O)(=O)N1CCc3ccc(Cl)c(S(=O)(=O)Nc4cccc(Cl)c4)c3C1)CC2` [Compound 23, N,N'-Bis[7-Chloro-8-(3-Chlorobenzeneaminosulfonyl)-1,2,3,4-Tetrahydroisoquinolyl]disulfonylimide], the inhibition at 5 µM is 48%.

Consider `O=S(=O)(Nc1cccc(Cl)c1)c1ccc(Cl)c2c1CCN(S(=O)(=O)NS(=O)(=O)N1CCc3c(S(=O)(=O)Nc4cccc(Cl)c4)ccc(Cl)c3C1)C2` [Compound 30, N,N'-bis[8-chloro-5-(3-chlorobenzeneaminosulfonyl)-1,2,3,4-tetrahydroisoquinolyl]disulfonylimide], for which the inhibition at 5 µM was found to be 63%.

These data come from patent US4315935A, “N,N'-Bis[substituted-1,2,3,4-tetrahydroisoquinolinolyl]disulfonylimides and antiallergic compositions and method of use” (SmithKline Corporation, priority 1980, dated 1982).
